# Measured values published in patent US20060177503A1, “Bambuterol and integrin inhibitor combination and treatment method” (priority 2005, published 2006).
# Experiments:
# plasma cholinesterase = plasma cholinesterase (Homo sapiens, UniProt P06276); conditions: cited from earlier work
# smooth muscle = conditions: cited from earlier work
# [1] = test system: histamine induced bronchoconstriction; conditions: cited from earlier work
# Hydrolytic stability = type: physicochemical
# Excerpt: The pharmaceutical dosage forms of the present invention can be prepared according to the examples set out below. […] Furthermore, both compounds are weak bases and the solubility and stability of the compounds are sensitive to counter-ions. In order to assure the stability of the product and to achieve desirable solubility of the dosage form, the choice of excipient is critical. Including an acidulating agent such as fumaric acid, adipic acid, succinic acid, tartaric acid, citric acid, lactic acid, maleic acid, etc., in the formulation, as well as eliminating soluble cations, is important to assure the solubility and stability of the product.
# [2] = test system: mild/moderate asthmatics not treated with inhaled corticosteroids; assay: ARES study: R411 monotherapy over a 12 week treatment period; type: in vivo, human
# Description: The ARES study illustrated in FIG. 3 was designed to evaluate the safety and efficacy of monotherapy R411 over a 12 week treatment period in 480 mild/moderate asthmatics not treated with inhaled corticosteroids. Patients were randomized to one of four cohorts: 50, 200, 600 mg QD R411, or placebo (n=120/group).
# The ARES study evaluated the safety and efficacy of monotherapy with R411 over a 12-week treatment period in 479 mild/moderate asthmatics not treated with inhaled corticosteroids. Patients were randomized to one of four cohorts: 50, 200, 600 mg once daily R411, or placebo.
# α4/β1 = α4/β1 (Homo sapiens, UniProt P05556+P13612); assay: Inhibition of binding of α4/β1 to VCAM-1
# Sequence of α4/β1 (P05556 21-798, one chain of several): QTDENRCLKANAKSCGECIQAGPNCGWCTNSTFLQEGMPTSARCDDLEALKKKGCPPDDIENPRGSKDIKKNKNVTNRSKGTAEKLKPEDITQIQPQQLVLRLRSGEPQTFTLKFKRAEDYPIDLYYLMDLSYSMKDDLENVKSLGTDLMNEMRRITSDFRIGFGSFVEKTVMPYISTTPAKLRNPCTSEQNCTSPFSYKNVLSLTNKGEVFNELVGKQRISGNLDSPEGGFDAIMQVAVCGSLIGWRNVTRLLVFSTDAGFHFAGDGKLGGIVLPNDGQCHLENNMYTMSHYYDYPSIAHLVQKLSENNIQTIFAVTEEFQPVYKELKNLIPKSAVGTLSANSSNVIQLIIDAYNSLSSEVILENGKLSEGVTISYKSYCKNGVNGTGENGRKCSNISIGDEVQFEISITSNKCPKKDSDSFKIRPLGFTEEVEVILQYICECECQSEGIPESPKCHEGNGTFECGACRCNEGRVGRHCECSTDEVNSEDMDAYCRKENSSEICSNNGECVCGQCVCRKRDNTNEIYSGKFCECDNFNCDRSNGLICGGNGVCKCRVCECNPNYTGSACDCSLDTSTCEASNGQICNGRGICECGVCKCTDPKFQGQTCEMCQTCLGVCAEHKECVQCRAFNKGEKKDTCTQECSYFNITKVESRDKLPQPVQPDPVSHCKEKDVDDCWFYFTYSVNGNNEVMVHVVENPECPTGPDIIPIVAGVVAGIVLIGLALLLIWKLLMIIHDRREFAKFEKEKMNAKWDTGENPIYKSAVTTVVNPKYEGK
# Excerpt: (§1) R411 inhibits the binding of α4/β1 to vascular cell adhesion molecule (VCAM-1) and α4/β7 to MadCAM-1 by […] is disclosed in U.S. Pat. No. 6,229,011, which disclosure is incorporated by reference herein.
# [3] = test system: persistent asthmatics treated with low to medium inhaled corticosteroids; assay: MARS study: R411 added to inhaled corticosteroids, 12 week treatment period; type: in vivo, human; conditions: added to moderate dose inhaled corticosteroids, subpopulation with not well controlled asthma
# Excerpt: As set out above, a second component in the solid pharmaceutical dosage form comprises a therapeutically effective amount of R411 (N-(2-chloro-6-methylbenzoyl)-4-[(2,6-dichlorobenzoyl)amino]-L-phenylalanine-2-(diethylamino)ethyl ester), or a pharmaceutically acceptable salt thereof. […] The MARS study illustrated in FIG. 2 was designed to evaluate the safety and efficacy of R411 over a 12 week treatment period in 350 persistent asthmatics being treated with a stable dose of low to medium inhaled corticosteroids and inhaled short acting β2-agonist. Patients were randomized to one of five cohorts: 50, 200, 600 mg once daily (QD) or 300 mg twice daily (BID) R411, or placebo (n=70/group). After a 2-week placebo run-in period and subsequent 2-week add-on period (R411 or placebo), morning inhaled corticosteroids were removed. Two weeks later, evening inhaled corticosteroids were removed, and patients remained in the treatment period for an additional 8 weeks. The primary endpoint in the study was the percentage change in FEV1 from baseline, and secondary endpoint included PEFR, asthma exacerbations, (2-agonist use, asthma control questionnaire, asthma symptom scores, nocturnal awakenings, FEF25-75 and rate of asthma treatment failures.
# key inflammatory cells = assay: Migration of inflammatory cells from the blood into the lungs; conditions: in vivo
# [4] = biological target: T1, (Homo sapiens, UniProt P13612); assay: In vitro binding to α4 integrin, activated and not activated
# T1 sequence (P13612 34-1032): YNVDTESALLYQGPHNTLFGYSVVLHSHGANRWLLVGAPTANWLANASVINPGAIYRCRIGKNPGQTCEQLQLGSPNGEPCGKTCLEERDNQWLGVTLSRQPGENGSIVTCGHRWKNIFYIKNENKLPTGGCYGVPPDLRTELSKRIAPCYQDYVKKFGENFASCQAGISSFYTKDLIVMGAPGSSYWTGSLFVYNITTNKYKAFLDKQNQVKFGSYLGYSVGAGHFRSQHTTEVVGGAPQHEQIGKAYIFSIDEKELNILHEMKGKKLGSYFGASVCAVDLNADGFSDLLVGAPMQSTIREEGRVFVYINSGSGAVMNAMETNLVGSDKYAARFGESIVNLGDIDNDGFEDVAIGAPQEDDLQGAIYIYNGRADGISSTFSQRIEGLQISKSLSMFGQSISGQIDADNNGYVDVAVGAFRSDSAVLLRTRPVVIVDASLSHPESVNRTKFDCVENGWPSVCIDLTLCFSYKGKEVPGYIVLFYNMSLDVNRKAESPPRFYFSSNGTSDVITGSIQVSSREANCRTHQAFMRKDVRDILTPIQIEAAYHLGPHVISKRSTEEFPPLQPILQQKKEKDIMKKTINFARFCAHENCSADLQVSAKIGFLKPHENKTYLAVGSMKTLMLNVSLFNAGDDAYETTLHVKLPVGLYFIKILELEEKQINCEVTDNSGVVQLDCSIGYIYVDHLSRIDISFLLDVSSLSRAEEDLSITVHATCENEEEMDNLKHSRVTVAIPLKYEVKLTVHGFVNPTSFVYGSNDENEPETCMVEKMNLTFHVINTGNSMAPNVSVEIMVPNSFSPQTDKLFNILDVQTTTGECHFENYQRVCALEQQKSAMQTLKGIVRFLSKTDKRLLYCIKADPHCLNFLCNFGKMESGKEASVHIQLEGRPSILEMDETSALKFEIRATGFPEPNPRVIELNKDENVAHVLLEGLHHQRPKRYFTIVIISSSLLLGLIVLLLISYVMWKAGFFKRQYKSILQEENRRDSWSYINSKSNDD
# α4/β7 = biological target: T2, α4/β7 (Homo sapiens, UniProt P13612+P26010); assay: Inhibition of binding of α4/β7 to MadCAM-1
# T2 sequence (P13612 34-1032): T1 sequence (P13612 34-1032)
# T2 sequence (P26010 20-798): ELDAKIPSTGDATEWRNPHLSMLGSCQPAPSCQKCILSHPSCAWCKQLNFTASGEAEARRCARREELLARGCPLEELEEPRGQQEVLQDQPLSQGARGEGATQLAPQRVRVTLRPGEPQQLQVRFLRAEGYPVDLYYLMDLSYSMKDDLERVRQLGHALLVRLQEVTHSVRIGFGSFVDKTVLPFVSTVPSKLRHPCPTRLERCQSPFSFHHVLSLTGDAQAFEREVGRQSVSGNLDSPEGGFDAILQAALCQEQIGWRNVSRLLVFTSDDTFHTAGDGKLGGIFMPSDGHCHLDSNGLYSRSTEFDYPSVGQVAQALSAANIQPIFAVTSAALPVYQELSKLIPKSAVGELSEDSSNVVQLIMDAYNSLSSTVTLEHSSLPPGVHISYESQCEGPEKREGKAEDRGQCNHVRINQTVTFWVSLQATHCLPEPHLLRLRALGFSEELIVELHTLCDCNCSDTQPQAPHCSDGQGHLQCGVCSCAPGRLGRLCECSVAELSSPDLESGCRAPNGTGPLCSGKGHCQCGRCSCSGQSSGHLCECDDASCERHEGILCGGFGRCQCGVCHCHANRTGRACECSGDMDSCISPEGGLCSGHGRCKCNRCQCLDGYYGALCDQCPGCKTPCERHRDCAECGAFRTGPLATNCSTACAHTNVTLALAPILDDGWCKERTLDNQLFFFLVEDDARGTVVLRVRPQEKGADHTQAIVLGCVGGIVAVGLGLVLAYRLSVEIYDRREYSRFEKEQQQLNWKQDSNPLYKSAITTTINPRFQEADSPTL
# Excerpt: as §1
# atopic primate = assay: Airway inflammation in the atopic primate, oral R411; type: in vivo; conditions: oral administration, FIG. 4
# Sequence of plasma cholinesterase (P06276 29-602): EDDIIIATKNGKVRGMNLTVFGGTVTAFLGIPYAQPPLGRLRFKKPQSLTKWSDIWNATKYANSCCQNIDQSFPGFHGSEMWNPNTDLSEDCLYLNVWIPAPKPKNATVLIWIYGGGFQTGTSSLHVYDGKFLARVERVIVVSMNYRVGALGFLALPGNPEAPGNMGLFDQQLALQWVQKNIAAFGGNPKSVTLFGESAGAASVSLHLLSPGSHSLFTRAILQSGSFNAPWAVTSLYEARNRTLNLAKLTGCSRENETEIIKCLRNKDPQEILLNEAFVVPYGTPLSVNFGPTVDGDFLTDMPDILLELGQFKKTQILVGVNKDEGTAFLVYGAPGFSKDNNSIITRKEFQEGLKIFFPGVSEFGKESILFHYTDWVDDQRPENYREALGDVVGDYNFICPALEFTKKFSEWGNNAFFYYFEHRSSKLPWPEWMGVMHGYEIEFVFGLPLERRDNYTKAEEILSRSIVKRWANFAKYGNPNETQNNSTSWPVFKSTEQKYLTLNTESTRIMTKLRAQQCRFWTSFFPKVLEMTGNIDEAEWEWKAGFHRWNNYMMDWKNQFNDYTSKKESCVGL
compound,measurement,setting,value
"CN(C)C(=O)Oc1cc(OC(=O)N(C)C)cc(C(O)CNC(C)(C)C)c1 (single isomer, unassigned; (-)) [(−)-bambuterol]",activity as plasma cholinesterase inhibitors,plasma cholinesterase,equally active
CN(C)C(=O)Oc1cc(OC(=O)N(C)C)cc([C@H](O)CNC(C)(C)C)c1 [(+)-bambuterol],activity as plasma cholinesterase inhibitors,plasma cholinesterase,equally active
"CN(C)C(=O)Oc1cc(OC(=O)N(C)C)cc(C(O)CNC(C)(C)C)c1 (centres unmarked) [Bambuterol, dimethylcarbamic acid 5-[2-[(1,1-dimethylethyl)amino]-1-hydroxyethyl]-1,3-phenylene ester]",smooth muscle relaxing properties,smooth muscle,did not exert any
same,duration of the relaxing activity,"[1]; equipotent doses, compared with terbutaline",more prolonged
same,protective effect against histamine induced bronchoconstriction,[1]; oral administration,sustained protective effect
same,hydrolytic degradation,Hydrolytic stability,susceptible to hydrolytic degradation
"CCN(CC)CCOC(=O)[C@H](Cc1ccc(NC(=O)c2c(Cl)cccc2Cl)cc1)NC(=O)c1c(C)cccc1Cl [R411, N-(2-Chloro-6-methylbenzoyl)-4-[(2,6-dichlorobenzoyl)amino]-L-phenylalanine-2-(diethylamino)ethyl ester]",Asthma Control Questionnaire Scores,[2]; compared to placebo,Improvement
same,Asthma Quality-of-Life,[2]; compared to placebo,Improvement
same,decrease in daytime asthma symptom score,"[2]; monotherapy, 12 weeks",Statistically significant improvements
same,decrease in nocturnal symptom score,"[2]; monotherapy, 12 weeks",Statistically significant improvements
same,reducing rescue albuterol use,"[2]; monotherapy, 12 weeks",Statistically significant improvements
same,small airway flow rates as measured by FEF25-75,"[2]; monotherapy, FIG. 3",significant effect
same,binding of α4/β1 to VCAM-1,α4/β1,inhibits
same,effectiveness against α4/β1 integrin,α4/β1,effective
same,large airway flow rates as measured by FEV1,[3]; FIG. 1,additive effect
same,small airway flow rates measured by FEF25-75,[3]; FIG. 2,additive effect
same,migration of key inflammatory cells from the blood into the lungs,key inflammatory cells,block the migration
same,binding affinity,[4]; activated α4 ligand,high affinity
same,dissociation,[4]; activated α4 ligand,slow dissociation
same,dissociation,[4]; receptor not activated,more rapid
same,in vitro binding affinity,[4]; receptor not activated,lower
same,binding of α4/β7 to MadCAM-1,α4/β7,inhibits
same,effectiveness against α4/β7 integrin,α4/β7,effective
same,airway inflammation,atopic primate,attenuates airway inflammation
same,hydrolytic degradation,Hydrolytic stability,susceptible to hydrolytic degradation
CN(C)C(=O)Oc1cc(O)cc(C(O)CNC(C)(C)C)c1 (centres unmarked) [monocarbamate ester],smooth muscle relaxing properties,smooth muscle,did not exert any
